Target: T1, SARM1 (50-724) (Homo sapiens, UniProt Q6SZW1)
T1 construct: Purified SARM1 (50-724) with a final concentration of 2 nM was pre-incubated with a test compound
T1 sequence (Q6SZW1 50-724): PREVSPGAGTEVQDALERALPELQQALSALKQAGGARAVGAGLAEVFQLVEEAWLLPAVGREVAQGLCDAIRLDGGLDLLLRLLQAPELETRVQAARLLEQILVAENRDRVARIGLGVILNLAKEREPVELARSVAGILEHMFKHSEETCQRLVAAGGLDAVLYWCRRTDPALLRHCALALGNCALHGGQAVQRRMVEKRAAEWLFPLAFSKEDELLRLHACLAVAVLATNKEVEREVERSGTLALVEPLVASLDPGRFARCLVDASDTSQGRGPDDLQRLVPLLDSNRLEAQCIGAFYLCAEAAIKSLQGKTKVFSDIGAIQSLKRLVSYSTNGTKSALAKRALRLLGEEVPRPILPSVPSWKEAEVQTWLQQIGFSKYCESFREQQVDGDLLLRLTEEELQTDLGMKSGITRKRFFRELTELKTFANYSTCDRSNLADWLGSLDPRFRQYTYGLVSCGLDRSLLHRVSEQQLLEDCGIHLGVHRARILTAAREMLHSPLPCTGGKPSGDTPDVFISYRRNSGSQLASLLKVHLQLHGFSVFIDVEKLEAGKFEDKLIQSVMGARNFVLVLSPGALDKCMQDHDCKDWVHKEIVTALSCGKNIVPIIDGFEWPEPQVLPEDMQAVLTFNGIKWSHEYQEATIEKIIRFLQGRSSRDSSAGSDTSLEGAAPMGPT
Assay: SARM1 (50-724) enzymatic assay (LC-MS/MS)
Assay type: biochemical
Settings: Purified SARM1 (50-724) 2 nM, NMN as activator, NAD+ as substrate, 1 h at room temperature, read-out: IC50 (SARM1 inhibitory activity)
How it was run: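 Human SARM1 (50-724), 2 nM, pre-incubated 15 min at room temperature with compound in Dulbecco's PBS. Reaction started with 200 µM NMN (activator) plus […] NAD^+ substrate, run 1 h at room temperature, quenched with 70% acetonitrile. Turnover quantified by LC-MS/MS; IC50 reported.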

Compound	IC50
Clc1cccc(-n2cnnc2-c2nc3cc(-c4ccn[nH]4)ccc3[nH]2)c1Cl [Example 68, 2-(4-(2,3-dichlorophenyl)-4H-1,2,4-triazol-3-yl)-5-(1H-pyrazol-5-yl)-1H-benzo[d]imidazole]	≤ 100 nM
FC(F)(F)c1ccc2[nH]c(-c3nncn3-c3cccn4ccnc34)nc2c1 [Example 70]	> 1000 nM
Cc1nccc(-n2cnnc2-c2nc3cc(C(F)(F)F)ccc3[nH]2)c1Cl [Example 71]	100 to 500 nM
CSc1c(Br)ccc2[nH]c(-c3nncn3-c3cccc(Cl)c3Cl)nc12 [Example 72, 5-bromo-2-(4-(2,3-dichlorophenyl)-4H-1,2,4-triazol-3-yl)-4-(methylthio)-1H-benzo[d]imidazole]	100 to 500 nM
Clc1cccc(-n2cnnc2-c2nc3cc(-c4cncnc4)ccc3[nH]2)c1Cl [Example 73, 2-(4-(2,3-dichlorophenyl)-4H-1,2,4-triazol-3-yl)-5-(pyrimidin-5-yl)-1H-benzo[d]imidazole]	100 to 500 nM
Cc1cc(-c2ccc3[nH]c(-c4nncn4-c4cccc(Cl)c4Cl)nc3c2)n(C)n1 [Example 74, 2-(4-(2,3-dichlorophenyl)-4H-1,2,4-triazol-3-yl)-5-(1,3-dimethyl-1H-pyrazol-5-yl)-1H-benzo[d]imidazole]	≤ 100 nM
Cn1cc(-c2ccccc2Cl)c(-c2nc3cc(C(F)(F)F)ccc3[nH]2)cc1=O [Example 75]	100 to 500 nM
Cn1cc(-c2cccc(Cl)c2)c(-c2nc3cc(C(F)(F)F)ccc3[nH]2)cc1=O [Example 76]	> 1000 nM
Clc1cccc(-n2cnnc2-c2nc3cc(-c4cncs4)ccc3[nH]2)c1Cl [Example 78, 5-(2-(4-(2,3-dichlorophenyl)-4H-1,2,4-triazol-3-yl)-1H-benzo[d]imidazol-5-yl)thiazole]	100 to 500 nM
Cn1cc(-c2ccc3[nH]c(-c4nncn4-c4cccc(Cl)c4Cl)nc3c2)cn1 [Example 79, 2-(4-(2,3-dichlorophenyl)-4H-1,2,4-triazol-3-yl)-5-(1-methyl-1H-pyrazol-4-yl)-1H-benzo[d]imidazole]	100 to 500 nM
Cc1cc(-c2ccc3[nH]c(-c4nncn4-c4cccc(Cl)c4Cl)nc3c2)sn1 [Example 80, 5-(2-(4-(2,3-dichlorophenyl)-4H-1,2,4-triazol-3-yl)-1H-benzo[d]imidazol-5-yl)-3-methylisothiazole]	100 to 500 nM
Cc1cnn(C)c1-c1ccc2[nH]c(-c3nncn3-c3cccc(Cl)c3Cl)nc2c1 [Example 81, 2-(4-(2,3-dichlorophenyl)-4H-1,2,4-triazol-3-yl)-5-(1,4-dimethyl-1H-pyrazol-5-yl)-1H-benzo[d]imidazole]	100 to 500 nM
Clc1cc(-c2ccc3[nH]c(-c4nncn4-c4cccc(Cl)c4Cl)nc3c2)[nH]n1 [Example 82, 5-(3-chloro-1H-pyrazol-5-yl)-2-(4-(2,3-dichlorophenyl)-4H-1,2,4-triazol-3-yl)-1H-benzo[d]imidazole]	≤ 100 nM
Cn1cc(-c2cccc(Cl)c2Cl)c(-c2nc3cc(C(C)(C)O)ccc3[nH]2)cc1=O [Example 83, 5-(2,3-Dichlorophenyl)-4-(5-(2-hydroxypropan-2-yl)-1H-benzo[d]imidazol-2-yl)-1-methylpyridin-2 (1H)-one]	> 1000 nM
Fc1cccc(-n2cnnc2-c2nc3cc(C(F)(F)F)ccc3[nH]2)c1F [Example 84, 2-(4-(2,3-difluorophenyl)-4H-1,2,4-triazol-3-yl)-5-(trifluoromethyl)-1H-benzo[d]imidazole]	≤ 100 nM
Fc1ccc(-n2cnnc2-c2nc3cc(C(F)(F)F)ccc3[nH]2)c(Cl)c1Cl [Example 85]	≤ 100 nM
Cn1cc(-c2ccccc2)c(-c2nc3cc(C(F)(F)F)ccc3[nH]2)cc1=O [Example 86]	> 1000 nM
Cc1nnc(-c2nc3cc(C(F)(F)F)ccc3[nH]2)n1-c1cccc(Cl)c1Cl [Example 87, 2-(4-(2,3-dichlorophenyl)-5-methyl-4H-1,2,4-triazol-3-yl)-5-(trifluoromethyl)-1H-benzo[d]imidazole]	≤ 100 nM
CS(=O)(=O)Cc1nnc(-c2nc3cc(C(F)(F)F)ccc3[nH]2)n1-c1cccc(Cl)c1Cl [Example 88, 2-(4-(2,3-dichlorophenyl)-5-((methylsulfonyl)methyl)-4H-1,2,4-triazol-3-yl)-5-(trifluoromethyl)-1H-benzo[d]imidazole]	≤ 100 nM
NC(=O)c1ncc(-c2nc3cc(C(F)(F)F)ccc3[nH]2)n1-c1cccc(Cl)c1Cl [Example 89, 1-(2,3-dichlorophenyl)-5-(5-(trifluoromethyl)-1H-benzo[d]imidazol-2-yl)-1H-imidazole-2-carboxamide]	100 to 500 nM
OCc1nnc(-c2nc3cc(C(F)(F)F)ccc3[nH]2)n1-c1cccc(Cl)c1Cl [Example 90]	≤ 100 nM
N#Cc1c(Cl)cccc1-n1cnnc1-c1nc2cc(C(F)(F)F)ccc2[nH]1 [Example 91]	> 1000 nM
FC(F)(F)c1ccc2[nH]c(-c3cnsc3-c3cccc(Cl)c3Cl)nc2c1 [Example 92]	100 to 500 nM

Compound	IC50
Cc1ccc2[nH]c(-c3nncn3-c3cccc(Cl)c3Cl)nc2c1C [Example 93, 2-(4-(2,3-dichlorophenyl)-4H-1,2,4-triazol-3-yl)-4,5-dimethyl-1H-benzo[d]imidazole]	≤ 100 nM
C[S+]([O-])c1c(Br)ccc2[nH]c(-c3nncn3-c3cccc(Cl)c3Cl)nc12 (stereo not drawn) [Example 94, 5-bromo-2-(4-(2,3-dichlorophenyl)-4H-1,2,4-triazol-3-yl)-4-(methylsulfinyl)-1H-benzo[d]imidazole]	500 to 1000 nM
CS(=O)(=O)c1c(Br)ccc2[nH]c(-c3nncn3-c3cccc(Cl)c3Cl)nc12 [Example 95, 5-bromo-2-(4-(2,3-dichlorophenyl)-4H-1,2,4-triazol-3-yl)-4-(methylsulfonyl)-1H-benzo[d]imidazole]	> 1000 nM
CC(C)(O)c1ccc2[nH]c(-c3nncn3-c3cccc(Cl)c3Cl)nc2c1 [Example 96, 2-(2-(4-(2,3-dichlorophenyl)-4H-1,2,4-triazol-3-yl)-1H-benzo[d]imidazol-5-yl)propan-2-ol]	≤ 100 nM
Cn1cc(-c2ccc(Cl)cc2)c(-c2nc3cc(C(F)(F)F)ccc3[nH]2)cc1=O [Example 98]	> 1000 nM
FC(F)(F)c1ccc2[nH]c(-c3nnnn3-c3cccc(Cl)c3Cl)nc2c1 [Example 99]	100 to 500 nM
Clc1cccc(-n2cnnc2-c2nc3cc(-c4cscn4)ccc3[nH]2)c1Cl [Example 100, 4-(2-(4-(2,3-dichlorophenyl)-4H-1,2,4-triazol-3-yl)-1H-benzo[d]imidazol-5-yl)thiazole]	≤ 100 nM
COC(=O)C(C)c1ccc2[nH]c(-c3nncn3-c3cccc(Cl)c3Cl)nc2c1 (stereo not drawn) [Example 101, methyl 2-(2-(4-(2,3-dichlorophenyl)-4H-1,2,4-triazol-3-yl)-1H-benzo[d]imidazol-5-yl)propanoate]	≤ 100 nM
COC(=O)C(C)(C)c1ccc2[nH]c(-c3nncn3-c3cccc(Cl)c3Cl)nc2c1 [Example 102]	≤ 100 nM
CC(C)(CO)c1ccc2[nH]c(-c3nncn3-c3cccc(Cl)c3Cl)nc2c1 [Example 103]	≤ 100 nM
CC(CO)c1ccc2[nH]c(-c3nncn3-c3cccc(Cl)c3Cl)nc2c1 (stereo not drawn) [Example 104, 2-(2-(4-(2,3-dichlorophenyl)-4H-1,2,4-triazol-3-yl)-1H-benzo[d]imidazol-5-yl)propan-1-ol]	≤ 100 nM
FC(F)(F)c1ccc2[nH]c(-c3nncn3-c3ccccc3Cl)nc2c1 [Example 105]	≤ 100 nM
FC(F)(F)c1ccc2[nH]c(-c3nncn3-c3nsc(Cl)c3Cl)nc2c1 [Example 106]	≤ 100 nM
CC(C)(C(N)=O)c1ccc2[nH]c(-c3nncn3-c3cccc(Cl)c3Cl)nc2c1 [Example 107]	≤ 100 nM
FC(F)(F)c1ccc2[nH]c(-c3nnc(S)n3-c3cccc(Cl)c3Cl)nc2c1 [Example 108, 4-(2,3-dichlorophenyl)-5-(5-(trifluoromethyl)-1H-benzo[d]imidazol-2-yl)-4H-1,2,4-triazole-3-thiol]	100 to 500 nM
COC(C)(C)c1ccc2[nH]c(-c3nncn3-c3cccc(Cl)c3Cl)nc2c1 [Example 110]	≤ 100 nM
OC1(c2ccc3[nH]c(-c4nncn4-c4cccc(Cl)c4Cl)nc3c2)CCC1 [Example 111]	≤ 100 nM
CC(C)(C#N)c1ccc2[nH]c(-c3nncn3-c3cccc(Cl)c3Cl)nc2c1 [Example 112]	≤ 100 nM
O=C(O)C1(c2ccc3[nH]c(-c4nncn4-c4cccc(Cl)c4Cl)nc3c2)CCC1 [Example 113]	≤ 100 nM
COc1ccc(Cl)c(-n2cnnc2-c2nc3cc(C(F)(F)F)ccc3[nH]2)n1 [Example 114]	≤ 100 nM
Oc1ccc(Cl)c(-n2cnnc2-c2nc3cc(C(F)(F)F)ccc3[nH]2)n1 [Example 115]	≤ 100 nM
FC(F)(F)c1ccc2[nH]c(-c3nnc(OC4COC4)n3-c3cccc(Cl)c3Cl)nc2c1 [Example 117, 2-(4-(2,3-dichlorophenyl)-5-(oxetan-3-yloxy)-4H-1,2,4-triazol-3-yl)-5-(trifluoromethyl)-1H-benzo[d]imidazole]	100 to 500 nM
